In patent publication US12036271B2, “Peptides and combination of peptides as targets or active ingredients for use in immunotherapy against AML and other cancers” (Immatics Biotechnologies GmbH, priority 2016, dated 2024):

Test system: CD8+ T cells
Assay: In vitro immunogenicity: T-cell priming with aAPCs loaded with peptide/MHC complexes and anti-CD28, pMHC multimer readout
Assay type: cell-based, human
Settings: HLA-A*02 healthy donor CD8+ T cells, multimer staining
Excerpt: In order to obtain information regarding the immunogenicity of the TUMAPs of the present invention, the inventors performed investigations using an in vitro T-cell priming assay based on repeated stimulations of CD8+ T cells with artificial antigen presenting cells (aAPCs) loaded with peptide/MHC complexes and anti-CD28 antibody.
In order to perform in vitro stimulations by artificial antigen presenting cells loaded with peptide-MHC complex (pMHC) and anti-CD28 antibody, the inventors first isolated CD8+ T cells from fresh HLA-A*02 leukapheresis products via positive selection using CD8 microbeads (Miltenyi Biotec, Bergisch-Gladbach, Germany) of healthy donors obtained from the University clinics Mannheim, Germany, after informed consent.
PBMCs and isolated CD8+ lymphocytes were incubated in T-cell medium (TCM) until use consisting of RPMI-Glutamax (Invitrogen, Karlsruhe, Germany) supplemented with 10% heat inactivated human AB serum (PAN-Biotech, Aidenbach, Germany), 100 U/ml Penicillin/100 μg/ml Streptomycin (Cambrex, Cologne, Germany), 1 mM sodium pyruvate (CC Pro, Oberdorla, Germany), 20 μg/ml Gentamycin (Cambrex). 2.5 ng/ml IL-7 (PromoCell, Heidelberg, Germany) and 10 U/ml IL-2 (Novartis Pharma, Nürnberg, Germany) were also added to the TCM at this step.
Generation of pMHC/anti-CD28 coated beads, T-cell stimulations and readout was performed in a highly defined in vitro system using four different pMHC molecules per stimulation condition and 8 different pMHC molecules per readout condition.
The purified co-stimulatory mouse IgG2a anti human CD28 Ab 9.3 (Jung et al., 1987) was chemically biotinylated using Sulfo-N-hydroxysuccinimidobiotin as recommended by the manufacturer (Perbio, Bonn, Germany). Beads used were 5.6 μm diameter streptavidin coated polystyrene particles (Bangs Laboratories, Illinois, USA).
800.000 beads/200 μl were coated in 96-well plates in the presence of 4×12.5 ng different biotin-pMHC, washed and 600 ng biotin anti-CD28 were added subsequently in a volume of 200 μl. Stimulations were initiated in 96-well plates by co-incubating 1×10^6 CD8+ T cells with 2×10^5 washed coated beads in 200 μl TCM supplemented with 5 ng/ml IL-12 (PromoCell) for 3 days at 37° C. Half of the medium was then exchanged by fresh TCM supplemented with 80 U/ml IL-2 and incubating was continued for 4 days at 37° C. This stimulation cycle was performed for a total of three times. For the pMHC multimer readout using eight different pMHC molecules per condition, a two-dimensional combinatorial coding approach was used as previously described (Andersen et al., 2012) with minor modifications encompassing coupling to 5 different fluorochromes. Finally, multimeric analyses were performed by staining the cells with Live/dead near IR dye (Invitrogen, Karlsruhe, Germany), CD8-FITC antibody clone SK1 (BD, Heidelberg, Germany) and fluorescent pMHC multimers. For analysis, a BD LSRII SORP cytometer equipped with appropriate lasers and filters was used. Peptide specific cells were calculated as percentage of total CD8+ cells. Evaluation of multimeric analysis was done using the FlowJo software (Tree Star, Oregon, USA). In vitro priming of specific multimer+CD8+ lymphocytes was detected by comparing to negative control stimulations.

Substance	wells
189 (RLFEEVLGV; listed as Homo sapiens) [compound 189]	++ (20%-49% = ++)
190 (SLYKGLLSV; listed as Homo sapiens) [compound 190]	++ (20%-49% = ++)
191 (ALSVLRLAL; listed as Homo sapiens) [compound 191]	++ (20%-49% = ++)
192 (GLAALAVHL; listed as Homo sapiens) [compound 192]	++ (20%-49% = ++)
193 (FLLAEDTKV; listed as Homo sapiens) [compound 193]	++ (20%-49% = ++)
194 (LLWGNLPEI; listed as Homo sapiens) [compound 194]	++ (20%-49% = ++)
195 (FLFVDPELV; listed as Homo sapiens) [compound 195]	+++ (50%-69% = +++)
196 (ILVDWLVQV; listed as Homo sapiens) [compound 196]	++ (20%-49% = ++)
197 (VLLNEILEQV; listed as Homo sapiens) [compound 197]	++ (20%-49% = ++)
198 (KIQEILTQV; listed as Homo sapiens) [compound 198]	++ (20%-49% = ++)
